Measurements taken from patent US20190000079A1, “Methods and Formulation for Treatment of Nuts, Seeds, Grains, Cereals, Plant Growth Media, and Plants” (Lipotec Laboratories, LLC, priority 2015, published 2019).

Columns and labels:
Experiment in all cases: Growth experiment, coated vs uncoated seeds planted in soil
soybeans = format: in vivo, soybean
Source text: (§1) Groups of coated and uncoated soybeans, corn, sunflower, and turfgrass were planted in soil and monitored for germination.

sunflower = format: in vivo
Source text: as §1

corn = format: in vivo
Source text: as §1

germination time of coated seeds (soybeans; soybean seeds coated with DMSO and curcumin, planted in soil, same as uncoated): 2 days | height and diameter, coated vs uncoated (soybeans; soybean, after 3 weeks): equal height and diameter | germination time of coated seeds (sunflower; sunflower seeds coated with DMSO and curcumin, planted in soil, same as uncoated): 2 days | height and diameter, coated vs uncoated (sunflower; sunflower, after 3 weeks): equal height and diameter | germination time of coated seeds (corn; corn seeds coated with DMSO and curcumin, planted in soil, same as uncoated): 2 days | height and diameter, coated vs uncoated (corn; corn, after 3 weeks): equal height and diameter
SMILES: COc1cc(/C=C/C(=O)CC(=O)/C=C/c2ccc(O)c(OC)c2)ccc1O [curcumin, Curcumin]
